Assay results as given in publication PMC6152226, “Composition and Antioxidant, Antienzymatic and Antimicrobial Activities of Volatile Molecules from Spanish Salvia lavandulifolia (Vahl) Essential Oils” (Molecules : A Journal of Synthetic Chemistry and Natural …, 2017).
Values after ≈ are worked out from the molar mass of the structure shown. Values joined by “and” are separate entries in the source; they are usually repeats but may differ in a detail not shown here. Identical values can stand only once. Like-named read-outs stand apart in the source and are kept apart here.

Legend:
[1] = Oxygen radical absorbance capacity (ORAC) assay; details: individual compounds, maximum assay concentration 100 mM
Protocol: (§1) Five antioxidant methods were performed with SlEOs and their main individual compounds in triplicate. In the oxygen radical absorbance capacity (ORAC) assay, peroxyl radicals are produced by 2,2′-Azobis(2-methylpropionamidine) dihydrochloride (AAPH), which reacts with fluorescein giving a non-fluorescent compound [61]. The antioxidants are able to scavenge these peroxyl radicals. Trolox was used as the reference antioxidant. The 2,2-diphenyl-1-picrylhydrazyl (DPPH) and 2,2′-azino-bis(3-ethylbenzothiazoline-6-sulphonic acid) (ABTS) methods measure the bleaching produced by the reduction of the coloured DPPH and ABTS radicals. Trolox was used as the reference antioxidant. The RdP method measure the ability to reduce ferric ions, according to the method of Oyaizu. Ascorbic acid was the reference antioxidant used in this method. The ChP method measured the ability to chelate Fe^2+ ion, following the method of Miguel et al.. EDTA was used as reference antioxidant. The SlEOs were diluted in 100% ethanol in the DPPH, ABTS, RdP and ChP methods, whereas in the ORAC method, SlEOs were diluted in 15% ethanol to obtain a final concentration of 5% ethanol in the reaction medium. All measurements were made at the end-point of the reaction, except in the ORAC method (Figure S5).

DPPH radical method = details: individual compounds; maximum assay concentration 100 mM
Protocol: as §1

ABTS radical method = details: individual compounds; maximum assay concentration 100 mM
Protocol: as §1

[2] = Reducing power (RdP) method; details: individual compounds; maximum assay concentration 100 mM
Protocol: as §1

[3] = Chelating power (ChP) method; details: individual compounds; maximum assay concentration 100 mM
Protocol: as §1

LOX = target: T1, LOX (Glycine max, UniProt P08170); assay: LOX inhibition assay; type: biochemical, Glycine max (soybean); details: for DI (%) of LOX: at 514.2 µg/mL, could not reach 50% inhibition
T1 construct: purchased Sigma-Aldrich
Protocol: A LOX preparation from Glycine max (soybean) was acquired from Sigma-Aldrich. LOX inhibitory activity was determined as previously reported, based on the absorption at 234 nm of the hydroperoxyde conjugated dienes (ε = 25,000 M^−1 cm^−1), which are generated from the oxidation of linoleic acid in the presence of oxygen and LOX. This assay was carried out on a double beam Lambda 35 spectrophotometer (PerkinElmer, Madrid, Spain) with the UV-Winlab software, at 25 °C.
(§2) The DI in both antienzymatic assays were calculated using Equation (1):(1) DI (%)= ν0−νi/ν0 × 100 where v0 and v1 are the steady state rates without and with inhibitor, respectively. The inhibitions of LOX were reported as DI at 150 µg/mL of each SlEO. […] To calculate the IC50 values, data of DI (%) of seven different concentrations of each SlEO were plotted and fitted by non-linear regression according to Equation (2) using Sigma Plot software (systatsoftware.com) (Figure S6). The inhibitions of LOX and AChE by individual compounds were reported as IC50 or DI, depending on their inhibition capacities and solubilities.
(§3) (2) DI (%)= DImax [I]0/IC50+ [I]0

AChE VI-S = target: T2, AChE VI-S (Electrophorus electricus, UniProt O42275); assay: biochemical; details: for concentration at which 15% inhibition of AChE reached: IC50 not calculable due to low water solubility
T2 construct: purchased Sigma-Aldrich
Protocol: AChE VI-S from Electrophorus electricus was purchased from Sigma-Aldrich. AChE inhibitory activity was measured in triplicate using a 96-well microplate reader at 25 °C, according to Ellman’s method. This enzyme hydrolyzes acetylthiocholine to acetate and thiocholine, which reacts with 5,5-dithio-bis-(2-nitrobenzoic acid) (DTNB) producing a coloured compound with absorbance at 412 nm. The reaction was measured for 10 min at 25 °C, using a 96-well microplate reader. SlEOs were diluted in 15% ethanol, to obtain a final concentration of 5% ethanol in the reaction medium.
as §2, §3

[4] = tested on: Escherichia coli ATCC 8739; assay: Broth microdilution MIC and MBC; type: cell-based
Protocol: (§4) The following test microorganisms used in this work were acquired from Sigma-Aldrich: Pseudomonas aeruginosa ATCC 9027, Escherichia coli ATCC 8739, Staphylococcus aureus ATCC 6538, and Candida albicans ATCC 10231. The stock cultures were preserved in TSB or YPD with 15% glycerol, for bacteria and yeast cells, respectively, at −80 °C. Isolated colonies from an 18- to 24-h agar plate were transferred to MHB for bacteria and RPMI-1640 for C. albicans.
(§5) MIC were determined using the broth microdilution method in 96-well microplates, according to the M07-A10 [69] standard for bacteria and the M27-A3 [70] for Candida. Briefly, two-fold dilutions of a 40 µL/mL SlEOs were prepared to obtain a final concentration range of 0.08–20 µL/mL with 0.5% Tween®80 and 2.5% DMSO. The antimicrobial activities of main compounds were also tested in the concentration range of 0.12–15 mM with 0.5% Tween®80 and 2.5% DMSO as solvent. The final strain concentration was 5 × 10^5 CFU/mL in MHB for the bacteria and 0.5−2.5 × 10^3 in RPMI-1640 for the yeast. These plates were incubated for 24 h for bacteria and 48 h for Candida, both at 35 ± 1 °C, under aerobic conditions on a plate shaker at 100 rpm. Streptomycin (0.06–8.00 µg/mL) and fluconazole (0.13–16 µg/mL) were used as reference antibacterial and antifungal compound, respectively. […] MIC is defined as the lowest concentration of EO or individual compound with no visible growth of microorganisms, at the end of the incubation period. […] All determinations were carried out in triplicate.

[5] = tested on: Staphylococcus aureus ATCC 6538; assay: Broth microdilution MIC and MBC; type: cell-based
Protocol: as §4, §5

[6] = tested on: Candida albicans ATCC 10231; assay: Broth microdilution MIC and MFC; type: cell-based
Protocol: as §4, §5

T1 sequence (P08170 whole entry): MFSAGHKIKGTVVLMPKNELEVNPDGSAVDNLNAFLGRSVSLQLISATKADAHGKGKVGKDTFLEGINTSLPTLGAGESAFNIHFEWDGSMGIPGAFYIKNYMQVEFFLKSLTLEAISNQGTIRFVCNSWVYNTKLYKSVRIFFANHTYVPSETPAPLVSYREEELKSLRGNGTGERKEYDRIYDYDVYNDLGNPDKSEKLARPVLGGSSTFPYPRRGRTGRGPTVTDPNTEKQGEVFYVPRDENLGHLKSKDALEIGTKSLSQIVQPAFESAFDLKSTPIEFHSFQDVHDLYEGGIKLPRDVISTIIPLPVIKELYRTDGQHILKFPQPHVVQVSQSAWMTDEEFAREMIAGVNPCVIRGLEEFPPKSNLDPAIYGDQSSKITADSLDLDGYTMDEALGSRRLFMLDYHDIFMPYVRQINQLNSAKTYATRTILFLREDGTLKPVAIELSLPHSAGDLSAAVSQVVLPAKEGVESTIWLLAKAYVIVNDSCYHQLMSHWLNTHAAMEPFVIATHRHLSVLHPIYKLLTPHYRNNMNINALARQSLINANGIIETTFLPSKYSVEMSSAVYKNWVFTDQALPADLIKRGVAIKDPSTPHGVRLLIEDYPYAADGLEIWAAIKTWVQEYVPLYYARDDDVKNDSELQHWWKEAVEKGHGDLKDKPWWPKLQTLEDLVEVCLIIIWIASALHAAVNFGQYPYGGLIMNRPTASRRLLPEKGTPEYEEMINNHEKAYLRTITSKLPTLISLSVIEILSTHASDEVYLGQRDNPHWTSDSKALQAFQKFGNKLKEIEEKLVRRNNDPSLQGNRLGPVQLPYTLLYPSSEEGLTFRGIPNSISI
T2 sequence (O42275 24-633): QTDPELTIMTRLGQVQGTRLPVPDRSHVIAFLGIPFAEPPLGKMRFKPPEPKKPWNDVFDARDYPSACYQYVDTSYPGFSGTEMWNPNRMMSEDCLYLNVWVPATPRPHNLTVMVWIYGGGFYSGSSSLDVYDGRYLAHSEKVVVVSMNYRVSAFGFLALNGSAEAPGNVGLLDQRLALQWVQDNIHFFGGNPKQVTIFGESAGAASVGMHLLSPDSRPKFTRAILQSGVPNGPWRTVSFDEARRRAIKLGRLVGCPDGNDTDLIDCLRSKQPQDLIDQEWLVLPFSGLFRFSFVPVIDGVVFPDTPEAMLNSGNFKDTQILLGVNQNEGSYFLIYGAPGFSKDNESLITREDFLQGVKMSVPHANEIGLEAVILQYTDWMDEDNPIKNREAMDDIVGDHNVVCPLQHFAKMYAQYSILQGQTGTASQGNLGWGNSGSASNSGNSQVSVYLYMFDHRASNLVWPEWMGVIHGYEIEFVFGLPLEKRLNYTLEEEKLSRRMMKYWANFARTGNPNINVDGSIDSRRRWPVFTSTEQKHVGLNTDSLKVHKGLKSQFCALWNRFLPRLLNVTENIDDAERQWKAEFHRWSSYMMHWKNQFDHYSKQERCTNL

Compound	ORAC [1]	DPPH (DPPH radical method)	ABTS (ABTS radical method)	RdP [2]	ChP [3]	DI (%) of LOX (LOX)	MIC ([4]; ATCC8739, 24 h, read-out: MIC)	MBC ([4]; ATCC8739, read-out: MBC)	MIC ([5]; ATCC6538, 24 h, read-out: MIC)	MBC ([5]; ATCC6538, read-out: MBC)	MIC ([6]; ATCC10231, 48 h, read-out: MIC)	MFC ([6]; ATCC10231, read-out: MFC)	also measured
CC12CCC(CC1)C(C)(C)O2 [1,8-Cineole]	N/D (Activity lower than 0.05 units at a maximum assay concentration of 100 mM)	N/D (Activity lower than 0.05 units at a maximum assay concentration of 100 mM)	N/D (Activity lower than 0.05 units at a maximum assay concentration of 100 mM)	N/D (Activity lower than 0.05 units at a maximum assay concentration of 100 mM)	1.1 ± 0.1 µmol EDTAE/mmol X	30.9 ± 1.1%	> 2300 µg/mL	> 2300 µg/mL	> 2300 µg/mL	> 2300 µg/mL	> 2300 µg/mL	> 2300 µg/mL	ORAC ([1]; listed as 1,8-cineole): did not show any ORAC antioxidant activity; IC50 (AChE VI-S): 228 µM and 227 µM
C=C1C2CCC(C2)C1(C)C (stereo not shown) [Camphene]	N/D (Activity lower than 0.05 units at a maximum assay concentration of 100 mM)	N/D (Activity lower than 0.05 units at a maximum assay concentration of 100 mM)	0.1 ± 0.0 µmol TE/mmol X	0.5 ± 0.0 µmol AAE/mmol X	1.6 ± 0.1 µmol EDTAE/mmol X								concentration at which 15% inhibition of AChE reached (AChE VI-S): 42.4 ± 3.7 µg/mL; MBC ([4]; ATCC8739): > 2000 µg/mL; MIC ([4]; ATCC8739, 24 h): > 2000 µg/mL; MBC ([5]; ATCC6538): > 2000 µg/mL; MIC ([5]; ATCC6538, 24 h): > 2000 µg/mL; MFC ([6]; ATCC10231): > 2000 µg/mL; MIC ([6]; ATCC10231, 48 h): > 2000 µg/mL
CC12CCC(CC1=O)C2(C)C (stereo not shown) [Camphor]	N/D (Activity lower than 0.05 units at a maximum assay concentration of 100 mM)	N/D (Activity lower than 0.05 units at a maximum assay concentration of 100 mM)	N/D (Activity lower than 0.05 units at a maximum assay concentration of 100 mM)	N/D (Activity lower than 0.05 units at a maximum assay concentration of 100 mM)	N/D (Activity lower than 0.05 units at a maximum assay concentration of 100 mM)		> 2300 µg/mL	> 2300 µg/mL	> 2300 µg/mL	> 2300 µg/mL	> 2300 µg/mL	> 2300 µg/mL	ORAC ([1]; listed as camphor): did not show any ORAC antioxidant activity; IC50 (LOX): 2740 µM
C=C(C)[C@H]1CC=C(C)CC1 [Limonene]	128.0 ± 10.8 µmol TE/mmol X	N/D (Activity lower than 0.05 units at a maximum assay concentration of 100 mM)	0.6 ± 0.0 µmol TE/mmol X	N/D (Activity lower than 0.05 units at a maximum assay concentration of 100 mM)	5.9 ± 0.4 µmol EDTAE/mmol X								IC50LOX (LOX): 116.1 ± 3.3 µg/mL (≈ 0.852 mM); MBC [4]: 2000 µg/mL (≈ 14.7 mM); MIC ([4]; 24 h): 2000 µg/mL (≈ 14.7 mM); MBC [5]: 300 µg/mL (≈ 2.2 mM); MIC ([5]; 24 h): 300 µg/mL (≈ 2.2 mM); MFC [6]: 1000 µg/mL (≈ 7.34 mM); MIC ([6]; 48 h): 1000 µg/mL (≈ 7.34 mM)
C=CC(C)(O)CCC=C(C)C (stereo not shown) [Linalool]	341.9 ± 18.5 µmol TE/mmol X	N/D (Activity lower than 0.05 units at a maximum assay concentration of 100 mM)	0.1 ± 0.0 µmol TE/mmol X	N/D (Activity lower than 0.05 units at a maximum assay concentration of 100 mM)	96.9 ± 5.8 µmol EDTAE/mmol X		1100 µg/mL (≈ 7.13 mM)	2300 µg/mL (≈ 14.9 mM)	600 µg/mL (≈ 3.89 mM)	1100 µg/mL (≈ 7.13 mM)	2300 µg/mL (≈ 14.9 mM)	2300 µg/mL (≈ 14.9 mM)	IC50 (LOX): 3350 µM
CC1=CCC(O)(C(C)C)CC1 (stereo not shown) [Terpinen-4-ol]	356.0 ± 13.6 µmol TE/mmol X	N/D (Activity lower than 0.05 units at a maximum assay concentration of 100 mM)	0.3 ± 0.0 µmol TE/mmol X	N/D (Activity lower than 0.05 units at a maximum assay concentration of 100 mM)	1.7 ± 0.1 µmol EDTAE/mmol X	29.6 ± 1.0%	2300 µg/mL (≈ 14.9 mM)	2300 µg/mL (≈ 14.9 mM)	1100 µg/mL (≈ 7.13 mM)	2300 µg/mL (≈ 14.9 mM)	> 2300 µg/mL	> 2300 µg/mL	concentration at which 15% inhibition of AChE reached (AChE VI-S): 582.4 ± 38.1 µg/mL
CC1=CCC2CC1C2(C)C (stereo not drawn) [α-Pinene]	N/D (Activity lower than 0.05 units at a maximum assay concentration of 100 mM)	N/D (Activity lower than 0.05 units at a maximum assay concentration of 100 mM)	N/D (Activity lower than 0.05 units at a maximum assay concentration of 100 mM)	N/D (Activity lower than 0.05 units at a maximum assay concentration of 100 mM)	16.6 ± 1.1 µmol EDTAE/mmol X		500 µg/mL (≈ 3.67 mM)	1000 µg/mL (≈ 7.34 mM)	2100 µg/mL (≈ 15.4 mM)	> 2100 µg/mL	500 µg/mL (≈ 3.67 mM)	500 µg/mL (≈ 3.67 mM)	IC50 (AChE VI-S): 3270 µM
CC1=CC[C@@H](C(C)(C)O)CC1 [α-Terpineol]	310.0 ± 16.6 µmol TE/mmol X	N/D (Activity lower than 0.05 units at a maximum assay concentration of 100 mM)	0.2 ± 0.0 µmol TE/mmol X	N/D (Activity lower than 0.05 units at a maximum assay concentration of 100 mM)	4.9 ± 0.3 µmol EDTAE/mmol X	17.4 ± 0.2%	2400 µg/mL (≈ 15.6 mM)	2400 µg/mL (≈ 15.6 mM)	600 µg/mL (≈ 3.89 mM)	1100 µg/mL (≈ 7.13 mM)	> 2400 µg/mL	> 2400 µg/mL	
